Key:
[1] = tested on: Hepatitis C virus; assay: Antiviral activity against Hepatitis C virus genotype 1b infected in human HuH7 cells by luciferase reporter gene analysis; assay type: functional, organism-based, Hepacivirus hominis; settings: Huh-7
[2] = tested on: Hepatitis C virus; assay: Antiviral activity against Hepatitis C virus genotype 1a infected in human HuH7 cells by luciferase reporter gene analysis; assay type: functional, organism-based, Hepacivirus hominis; settings: subtype 1a, Huh-7
[3] = Cytotoxicity against human HuH7 cells; assay type: cell-based; settings: Huh-7 cells
[4] = target: RNA-directed RNA polymerase (Hepacivirus hominis, UniProt O39930, P495L); assay: Inhibition of Hepatitis C virus NS5B RNA-dependent RNA polymerase P495L mutant
RNA-directed RNA polymerase, sequence (O39930 entry or part of it P495L): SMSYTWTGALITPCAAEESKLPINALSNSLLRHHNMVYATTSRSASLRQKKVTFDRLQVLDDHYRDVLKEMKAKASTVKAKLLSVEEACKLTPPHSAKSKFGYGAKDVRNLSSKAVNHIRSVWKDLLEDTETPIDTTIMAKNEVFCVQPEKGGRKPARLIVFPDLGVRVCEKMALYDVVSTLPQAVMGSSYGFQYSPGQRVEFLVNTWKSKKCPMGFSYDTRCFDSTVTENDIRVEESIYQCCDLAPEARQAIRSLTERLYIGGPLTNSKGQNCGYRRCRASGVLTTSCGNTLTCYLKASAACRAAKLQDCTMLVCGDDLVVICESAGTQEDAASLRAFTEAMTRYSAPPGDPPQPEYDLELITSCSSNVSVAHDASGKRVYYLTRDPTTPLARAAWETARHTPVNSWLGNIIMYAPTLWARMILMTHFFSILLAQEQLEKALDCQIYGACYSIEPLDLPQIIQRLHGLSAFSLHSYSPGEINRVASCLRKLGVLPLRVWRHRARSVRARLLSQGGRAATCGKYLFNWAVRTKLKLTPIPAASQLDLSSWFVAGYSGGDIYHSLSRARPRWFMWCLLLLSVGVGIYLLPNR

[5] = Inhibition of Hepatitis C virus NS5B RNA-dependent RNA polymerase; parameters: species or system Hepacivirus hominis
[6] = AUC in rat; assay type: ADME, organism-based; settings: plasma
[7] = Clearance in rat at 2 mg/kg, iv; assay type: ADME, organism-based; parameters: dose 2 mg/kg, route intravenous; settings: in vivo
[8] = Half life in rat at 2 mg/kg, iv; assay type: ADME, organism-based; parameters: dose 2 mg/kg, route intravenous; settings: in vivo
[9] = Oral bioavailability in rat; assay type: ADME, organism-based; settings: in vivo

SMILES	EC50 [1] [nM]	EC50 [2] [nM]	CC50 [3] [nM]	IC50 [4] [nM]	IC50 [5] [nM]	AUC [6] [µM·h]	clearance [7] [mL/min/kg]	half-life [8] [h]	bioavailability [9] [%]
O=C(O)/C=C/c1ccc(NC(=O)C2(NC(=O)c3ccc4c(C5CCCCC5)c5n(c4c3)CCCc3ccccc3-5)CCCC2)cc1	14	71	30000	3390	34				
O=C(O)/C=C/c1ccc(NC(=O)C2(NC(=O)c3ccc4c(C5CCCCC5)c5n(c4c3)CCCc3ocnc3-5)CCCC2)cc1	78	380		5850	44				
O=C(O)/C=C/c1ccc(NC(=O)C2(NC(=O)c3ccc4c(C5CCCCC5)c5n(c4c3)CCCc3occc3-5)CCCC2)cc1	< 69			3720	34				
O=C(O)/C=C/c1ccc(NC(=O)C2(NC(=O)c3ccc4c(C5CCCCC5)c5n(c4c3)CCCc3nc[nH]c3-5)CCCC2)cc1	738	2510			228				
Cc1nc2c(s1)CCCn1c-2c(C2CCCCC2)c2ccc(C(=O)NC3(C(=O)Nc4ccc(/C=C/C(=O)O)cc4)CCCC3)cc21	683	4190		5100	108				
Nc1nc2c(s1)CCCn1c-2c(C2CCCCC2)c2ccc(C(=O)NC3(C(=O)Nc4ccc(/C=C/C(=O)O)cc4)CCCC3)cc21	1810	3780		4840	250				
O=C(O)/C=C/c1ccc(NC(=O)C2(NC(=O)c3ccc4c(C5CCCCC5)c5n(c4c3)CCCc3nccnc3-5)CCCC2)cc1	24	89		2280	24				
O=C(O)/C=C/c1ccc(NC(=O)C2(NC(=O)c3ccc4c(C5CCCCC5)c5n(c4c3)CCCc3ncccc3-5)CCCC2)cc1	9	35	63000	1730	30	1.7	7.2	1	4
O=C(O)/C=C/c1ccc(NC(=O)C2(NC(=O)c3ccc4c(C5CCCCC5)c5n(c4c3)CC(=O)Nc3cccnc3-5)CCCC2)cc1	12	39	45000	3100	24		8.7		< 1
O=C(O)/C=C/c1ccc(NC(=O)C2(NC(=O)c3ccc4c(C5CCCCC5)c5n(c4c3)CCOc3cccnc3-5)CCCC2)cc1	22	157		> 600	15				
O=C(O)/C=C/c1ccc(NC(=O)C2(NC(=O)c3ccc4c(C5CCCCC5)c5n(c4c3)CCOc3ncccc3-5)CCCC2)cc1	21	28		2800	14				
